Values of other authors in patent US12295958B2, “Ready-to-use injectable formulations” (Zoetis Services LLC, priority 2019, dated 2025).
Where a name gives a salt, the structure may show the parent alone. Read-outs that look alike come from different tables or passages of the source.

Columns and labels:
[1] = clinical studies
[2] = tested on: Pasteurella multocide; conditions: cats, single injection, Pasteurella multocide infections
[3] = tested on: S. intermedius; conditions: dogs, single injection, S. intermedius infections
[4] = tested on: S. canis; conditions: dogs, single injection, S. canis infections

Row | SMILES | clinical equivalence of a single injection [1] | time therapeutic dose concentrations are provided [2] | time therapeutic drug concentrations are maintained [3] | time therapeutic drug concentrations are maintained [4] | caking after transport (0.15% Tween and ethyl oleate, glass bottles, transported by road (about 2 hours) and air (about 1 hour)) | caking (PVP K30 in addition with 0.5% Tween 80) | caking (addition of 0.5% Tween) | caking (addition of 0.5% polyethylene glycol-12-oleate) | resuspendability (ethyl oleate suspension without Tween 80) | resuspendability (ethyl oleate, 0.15% Tween 80 as flocculating agent) | dispersability of sediment (increasing concentrations of phospholipids (Lipoid S100), suspensions containing PEG-12-oleate) | caking on vibration (long chain fatty acid mixture with addition of phospholipid) | redispersion after vibration (suspension in mixture of long chain saturated and unsaturated fatty acids) | redispersion after vibration (suspensions in Miglyol 840 and Miglyol 812)
1 | CO/N=C(\C(=O)N[C@@H]1C(=O)N2C(C(=O)O)=C([C@@H]3CCCO3)CS[C@H]12)c1csc(N)n1 [Convenia, (6R,7R)-7-[[(2Z)-(2-amino-4-thiazolyl)(methoxyimino)acetyl]amino]-8-oxo-3-[(2S)-tetrahydro-2-furanyl]-5-thia-1-azabicyclo[4.2.0]oct-2-ene-2-carboxylic acid, monosodium salt] | clinically equivalent to a 14-day oral antibiotic regimen | approximately 7 days | approximately 7 days | about 14 days | – | – | – | – | – | – | – | – | – | –
2 | CCN(CC)CCOC(=O)[C@@H]1N2C(=O)[C@@H](NC(=O)Cc3ccccc3)[C@H]2SC1(C)C [penethamate] | – | – | – | – | “rock solid” cake | did not solve the caking problem | hard cake | prevented caking | required vigorous shaking and vortexing to disperse the cake | good resuspendability | less dispersable sediments | caking on vibration | dispersed readily | difficult to redisperse after vibration
